Laboratory results: patent publication US20240041042A1, “1-(PYRIDYL)-5-AZINYLPYRAZOLE DERIVATIVES, AND THEIR USE FOR CONTROL OF UNDESIRED PLANT GROWTH” (Bayer Aktiengesellschaft, priority 2020, published 2024)

What was measured:
Assay type in all cases: in vivo
[1] = test system: Amaranthus retroflexus (AMARE); assay: Post-emergence herbicidal action against AMARE
Method in brief: (§1)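 Values are percent visual activity (0% like control, 100% plants dead) after about 3 weeks in the greenhouse. Treatment: post-emergence spray at one-leaf stage, 600 l/ha spray volume, 0.5% additive, doses 320 g/ha or lower.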

[2] = test system: Echinochloa crus-galli (ECHCG); assay: Post-emergence herbicidal action against ECHCG
Method in brief: as §1

Lolium rigidum (LOLRI) [3] = assay: Pre-emergence herbicidal action against LOLRI
Method in brief: (§2)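 Application rates ran to 320 g/ha or lower, with several dosages tested on the same weeds. The compound, as wettable powder or emulsion concentrate, is sprayed pre-emergence onto soil over sown seeds; greenhouse growth follows, and effect is rated visually after roughly 3 weeks.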

[4] = test system: Abutilon theophrasti (ABUTH); assay: Pre-emergence herbicidal action against ABUTH; details: Dosage column 320 g/ha (title prints 3200 g/ha); scored visually after about 3 weeks; 100% = plants have died
Method in brief: as §2

[5] = test system: Echinochloa crus-galli (ECHCG); assay: Pre-emergence herbicidal action against ECHCG
Method in brief: as §2

[6] = test system: Pharbitis purpurea (PHBPU); assay: Post-emergence herbicidal action against PHBPU
Method in brief: as §1

Viola tricolor (VIOTR) [7] = assay: Pre-emergence herbicidal action against VIOTR
Method in brief: as §2

Setaria viridis (SETVI) [8] = assay: Post-emergence herbicidal action against SETVI
Method in brief: as §1

Setaria viridis (SETVI) [9] = assay: Pre-emergence herbicidal action against SETVI
Method in brief: as §2

Zea mays (ZEAMX) = details: crop plant compatibility, 80 g/ha, effect vs untreated controls
Method in brief: (§3)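 Percent effect on the crop was judged by eye against untreated controls, where 0% means like control and 100% means dead plants. Plants had been sprayed post-emergence at the one-leaf stage and then kept under optimum greenhouse conditions for about 3 weeks.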

[10] = test system: Alopecurus myosuroides (ALOMY); assay: Pre-emergence herbicidal action against ALOMY; details: scored visually after about 3 weeks, 100% = plants have died
Method in brief: as §2

[11] = test system: Alopecurus myosuroides (ALOMY); assay: Post-emergence herbicidal action against ALOMY; details: 320 g/ha, visual rating about 3 weeks after treatment vs untreated controls (100% = plants have died, 0% = like control plants)
Method in brief: as §1

[12] = test system: Matricaria inodora (MATIN); assay: Pre-emergence herbicidal action against MATIN
Method in brief: as §2

Lolium rigidum (LOLRI) [13] = assay: Post-emergence herbicidal action against LOLRI; details: dosage 320 g/ha
Method in brief: as §1

Avena fatua (AVEFA) [14] = assay: Post-emergence herbicidal action against AVEFA; details: visual rating about 3 weeks after treatment
Method in brief: as §1

[15] = test system: Matricaria inodora (MATIN); assay: Post-emergence herbicidal action against MATIN; details: dosage 320 g/ha
Method in brief: as §1

[16] = test system: Amaranthus retroflexus (AMARE); assay: Pre-emergence herbicidal action against AMARE; details: visual scoring after about 3 weeks vs untreated controls
Method in brief: as §2

[17] = test system: Verconica persica (VERPE); assay: Pre-emergence herbicidal action against VERPE; details: dosage 320 g/ha
Method in brief: as §2

[18] = test system: Pharbitis purpurea (PHBPU); assay: Pre-emergence herbicidal action against PHBPU
Method in brief: as §2

[19] = test system: Verconica persica (VERPE); assay: Post-emergence herbicidal action against VERPE
Method in brief: as §1

[20] = test system: Polygonum convolvulus (POLCO); assay: Post-emergence herbicidal action against POLCO
Method in brief: as §1

Viola tricolor (VIOTR) [21] = assay: Post-emergence herbicidal action against VIOTR
Method in brief: as §1

[22] = test system: Polygonum convolvulus (POLCO); assay: Pre-emergence herbicidal action against POLCO
Method in brief: as §2

Avena fatua (AVEFA) [23] = assay: Pre-emergence herbicidal action against AVEFA; details: 320 g/ha, visual scoring after about 3 weeks vs untreated controls
Method in brief: as §2

Oryza sativa (ORYSA) = details: crop plant compatibility, 80 g/ha, effect in comparison to untreated controls
Method in brief: as §3

| SMILES | Post-emergence action against ECHCG in % ([2]; dosage 80 g/ha) [%] | Post-emergence action against ECHCG in % ([2]; dosage 320 g/ha) [%] | Pre-emergence action against LOLRI in % (Lolium rigidum (LOLRI) [3]; dosage 80 g/ha) [%] | Pre-emergence action against LOLRI in % (Lolium rigidum (LOLRI) [3]; dosage 320 g/ha) [%] | Pre-emergence action against ABUTH [4] [%] | Pre-emergence action against ECHCG in % ([5]; dosage 320 g/ha) [%] | Post-emergence action against PHBPU in % ([6]; dosage 320 g/ha) [%] | Pre-emergence action against VIOTR in % (Viola tricolor (VIOTR) [7]; 320 g/ha, Viola tricolor) [%] | Pre-emergence action against VIOTR in % (Viola tricolor (VIOTR) [7]; dosage 80 g/ha) [%] | Post-emergence action against SETVI in % (Setaria viridis (SETVI) [8]; dosage 80 g/ha) [%] | Post-emergence action against SETVI in % (Setaria viridis (SETVI) [8]; dosage 320 g/ha) [%] | Pre-emergence action against SETVI in % (Setaria viridis (SETVI) [9]; dosage 320 g/ha) [%] | Pre-emergence action against ALOMY ([10]; 320 g/ha) [%] | Post-emergence action against ALOMY in % [11] [%] | Pre-emergence action against MATIN in % ([12]; dosage 320 g/ha) [%] | Post-emergence action against LOLRI in % (Lolium rigidum (LOLRI) [13]) [%] | Post-emergence action against AVEFA in % (Avena fatua (AVEFA) [14]; 320 g/ha) [%] | Post-emergence action against MATIN in % [15] [%] | Pre-emergence action against AMARE in % ([16]; 80 g/ha) [%] | Pre-emergence action against AMARE in % ([16]; 320 g/ha) [%] | other results |
| --- | --- | --- | --- | --- | --- | --- | --- | --- | --- | --- | --- | --- | --- | --- | --- | --- | --- | --- | --- | --- | --- |
| Cc1cccnc1-n1nc(OCC(=O)O)c(Br)c1-c1ccc(F)nc1 [Example I-324] | 90 | 90 | 100 | 100 | 80 | 100 | 90 | 100 | 100 | 80 | 90 | 100 | 100 | 100 | 90 | 90 | 100 | 80 | 100 | 100 | Post-emergence action against AMARE in % ([1]; 80 g/ha, visual rating about 3 weeks after treatment vs untreated controls (100% = plants have died, 0% = like control plants)): 90%; Post-emergence action against AMARE in % ([1]; 320 g/ha, visual rating about 3 weeks after treatment): 90%; Post-emergence action against ZEAMX in % (Zea mays (ZEAMX)): 0%; Pre-emergence action against ALOMY ([10]; 80 g/ha): 100%; Post-emergence action against AVEFA in % (Avena fatua (AVEFA) [14]; 80 g/ha): 100%; Pre-emergence action against VERPE in % [17]: 100%; Pre-emergence action against PHBPU in % ([18]; dosage 320 g/ha): 90%; Post-emergence action against VERPE in % ([19]; 320 g/ha, VERPE): 90%; Post-emergence action against VERPE in % ([19]; dosage 80 g/ha): 90%; Post-emergence action against POLCO in % ([20]; dosage 80 g/ha): 80%; Post-emergence action against POLCO in % ([20]; dosage 320 g/ha): 80%; Post-emergence action against VIOTR in % (Viola tricolor (VIOTR) [21]; 80 g/ha): 80%; Post-emergence action against VIOTR in % (Viola tricolor (VIOTR) [21]; 320 g/ha): 80%; Pre-emergence action against POLCO in % ([22]; dosage 80 g/ha): 90%; Pre-emergence action against POLCO in % ([22]; dosage 320 g/ha): 100%; Pre-emergence action against AVEFA in % (Avena fatua (AVEFA) [23]): 100% |
| C[C@@H](Oc1nn(-c2nc(F)ccc2F)c(-c2cncc(F)c2)c1Br)C(=O)O [Example I-155] | 80 | 80 | 90 | 100 | 90 | 100 | 90 | 100 | 100 | 80 | 90 | 100 | 100 | 80 | 90 | 80 | 80 | 80 | 90 | 100 | Pre-emergence action against ECHCG in % ([5]; dosage 80 g/ha): 90%; Post-emergence action against PHBPU in % ([6]; dosage 80 g/ha): 80%; Pre-emergence action against SETVI in % (Setaria viridis (SETVI) [9]; dosage 80 g/ha): 80%; Post-emergence action against ORYSA in % (Oryza sativa (ORYSA)): 10%; Pre-emergence action against MATIN in % ([12]; dosage 80 g/ha): 90%; Pre-emergence action against VERPE in % [17]: 100%; Pre-emergence action against PHBPU in % ([18]; dosage 80 g/ha): 90%; Pre-emergence action against PHBPU in % ([18]; dosage 320 g/ha): 90%; Post-emergence action against VERPE in % ([19]; 320 g/ha, VERPE): 80%; Post-emergence action against VERPE in % ([19]; dosage 80 g/ha): 80%; Post-emergence action against VIOTR in % (Viola tricolor (VIOTR) [21]; 80 g/ha): 80%; Post-emergence action against VIOTR in % (Viola tricolor (VIOTR) [21]; 320 g/ha): 80%; Pre-emergence action against POLCO in % ([22]; dosage 80 g/ha): 90%; Pre-emergence action against POLCO in % ([22]; dosage 320 g/ha): 90%; Pre-emergence action against AVEFA in % (Avena fatua (AVEFA) [23]): 90% |
